Assay results reported in patent publication EP0545103A1, “Insecticidal, acaricidal and molluscicidal 1-(substituted) thioalkylpyrroles” (priority 1991, dated 1993).

Tests used:
Format in all cases: in vivo
Set-up in all cases: key: 0: no effect; 10-25% kill; 26-35% kill; 36-45% kill; 46-55% kill; 56-65% kill; 66-75% kill; 76-85% kill; 86-99% kill; 9: 100% kill
[1] = system: Heliothis virescens, egg, tobacco budworm; test: Tobacco budworm egg test, dipped cotton leaf and eggs; conditions: mortality rating after 3 days
Procedure, shortened: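 Compound dissolved at 10,000 ppm in 35% aqueous acetone, diluted with water. A cotton leaf and a cheesecloth square with roughly 50-100 eggs aged 6-30 h are each dipped for about 3 s, then combined and kept humid. Mortality counted after 3 days and rated on a scale.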

[2] = system: Spodoptera eridania, 3rd instar larvae, southern armyworm; test: Southern armyworm 3rd instar test, dipped limabean leaf; conditions: for ARMYWORM Day 3: rating at 3 days; for ARMYWORM Day 5: rating at 5 days
Procedure, shortened: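 Compound dissolved in 35% acetone/water at 10,000 ppm stock, diluted with water. Sieva limabean leaves dipped 3 s, dried, and exposed to ten 3rd instar larvae on damp filter paper. Mortality, reduced feeding and molting interference scored at 3 and 5 days on a rating scale.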

[3] = system: Spodoptera eridania, 3rd instar larvae, southern armyworm; test: Southern armyworm 7-day residual test; conditions: R designates Residual: 7-day residual foliage, concentration not given; for ARMYWORM Day 3 R: rating at 3 days; for ARMYWORM Day 5 R: rating at 5 days
Procedure, shortened: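 Compound was dissolved in 35% aqueous acetone (10,000 ppm stock) and diluted with water before treating lima bean leaves. The leaves were aged 7 days under high-intensity greenhouse lamps (14 h day). Third-instar Spodoptera eridania larvae were then assayed on the foliage and rated on a scale.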

[4] = system: Diabrotic undecimpunctata howardi, 3rd instar southern corn rootworm; test: Southern corn rootworm soil test; conditions: mortality rating after 6 days
Procedure, shortened: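 Compound applied in acetone to talc at 1.25 and 0.25 mg active ingredient per jar (about 50 and 10 kg/ha), dried, then mixed with millet seed and moist soil. Ten 3rd instar larvae added per jar; mortality counted at 6 days, with missing larvae scored dead. Results rated on a scale.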

[5] = system: Tetranychus urticae (OP-resistant strain), 2-spotted spider mite; test: 2-spotted spider mite test, dipped infested limabean plants
Procedure, shortened: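 Mite-infested Sieva limabean plants (OP-resistant strain, ~100 mites per leaf, transferred ~2 h earlier) dipped 3 s with agitation in compound solution (10,000 ppm stock in 35% acetone/water, diluted with water). Mortality counted at 2 days; egg and nymph mortality assessed at 5 days; rated on a scale.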

[6] = system: Empoasca abrupta, adult, western potato leafhopper; test: Western potato leafhopper systemic uptake test; conditions: 100 ppm
Procedure, shortened: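 Cut Sieva lima bean stems stood 3 days at 27 °C in aqueous emulsion of test material (100 ppm, further 10-fold dilutions) for systemic uptake. One leaf then exposed to about 10 adult leafhoppers in a moist petri dish; mortality counted after 2 days and rated on a scale.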

[7] = 10 ppm, adult mites, rating scale 0-9
[8] = 10 ppm, mite eggs, rating scale 0-9
[9] = 100 ppm, adult mites, rating scale 0-9
[10] = 100 ppm, mite eggs, rating scale 0-9
[11] = 300 ppm, adult mites, rating scale 0-9
[12] = 300 ppm, mite eggs, rating scale 0-9
[13] = 300 ppm, mite nymphs, rating scale 0-9
[14] = systemic uptake, rating scale 0-9
[15] = 10 ppm, mite nymphs, rating scale 0-9
[16] = 10 ppm, mortality rating after 2 days
[17] = cut stem in emulsion 3 days, mortality rating after 2 days

Compound	TOBACCO BUDWORM Egg ([1]; 100 ppm)	TOBACCO BUDWORM Egg ([1]; 1000 ppm)	ARMYWORM Day 3 ([2]; 10 ppm)	ARMYWORM Day 5 ([2]; 10 ppm)	ARMYWORM Day 3 ([2]; 100 ppm)	ARMYWORM Day 5 ([2]; 100 ppm)	ARMYWORM Day 3 ([2]; 1000 ppm)	ARMYWORM Day 5 ([2]; 1000 ppm)	ARMYWORM Day 3 R [3]	ARMYWORM Day 5 R [3]	SOUTHERN CORN ROOTWORM ([4]; 50 (ppm as headed))	OP-RESISTANT MITES Adult [5, 7]	OP-RESISTANT MITES Egg [5, 8]	OP-RESISTANT MITES Egg [5, 10]	OP-RESISTANT MITES Adult [5, 11]	OP-RESISTANT MITES Egg [5, 12]	OP-RESISTANT MITES Nymph [5, 13]	LEAFHOPPER Systemic [6, 14]	further results
CC(C)OC(=S)SCn1c(-c2ccc(Cl)cc2)c(C#N)c(Br)c1C(F)(F)F [Example 30]	0	0	9 (100% kill)	9 (100% kill)	9 (100% kill)	9 (100% kill)	9 (100% kill)	9 (100% kill)	9 (100% kill)	9 (100% kill)	9 (100% kill)	9 (100% kill)	9 (100% kill)	9 (100% kill)	9 (100% kill)	0	0	0	OP-RESISTANT MITES Adult [5, 9]: 9 (100% kill)
CN=C(NC)SCn1c(Cl)c(Cl)c(C#N)c1-c1ccc(Cl)c(Cl)c1 [Example 15]	0	0	9 (100% kill)	9 (100% kill)	9 (100% kill)	9 (100% kill)	9 (100% kill)	9 (100% kill)	9 (100% kill)	9 (100% kill)	0				0	0	0	0	
CCOC(=S)SCn1c(Cl)c(Cl)c(C#N)c1-c1ccc(Cl)c(Cl)c1 [Example 28]	0	0							9 (100% kill)	9 (100% kill)	0		0	9 (100% kill)		0	0	0	OP-RESISTANT MITES Nymph [5, 15]: 3 (36-45% kill)
N#Cc1c(Cl)c(C(F)(F)F)n(CSC2=NCCN2)c1-c1ccc(Cl)cc1 [Example 4]	9 (100% kill)	9 (100% kill)	9 (100% kill)	9 (100% kill)	9 (100% kill)	9 (100% kill)	9 (100% kill)	9 (100% kill)	9 (100% kill)	9 (100% kill)	0								OP-RESISTANT MITES Adult [5, 16]: 0; OP-RESISTANT MITES Egg ([5]; 10 ppm, rating after 5 days): 0; OP-RESISTANT MITES Nymph ([5]; 10 ppm, rating after 5 days): 0; OP-RESISTANT MITES Egg ([5]; 100 ppm, rating after 5 days): 0; OP-RESISTANT MITES Nymph ([5]; 100 ppm, rating after 5 days): 0; OP-RESISTANT MITES Egg ([5]; 300 ppm, rating after 5 days): 9 (100% kill); LEAFHOPPER Systemic [6, 17]: 0
CCOC(=S)SCn1c(-c2ccc(Cl)cc2)c(C#N)c(Br)c1C(F)(F)F [Example 29]	0	4 (46-55% kill)	9 (100% kill)	9 (100% kill)	9 (100% kill)	9 (100% kill)	9 (100% kill)	9 (100% kill)	9 (100% kill)	9 (100% kill)	9 (100% kill)	9 (100% kill)	9 (100% kill)	9 (100% kill)	9 (100% kill)	0	0	0	OP-RESISTANT MITES Adult [5, 9]: 9 (100% kill)
CC1(C)CN=C(SCn2c(-c3ccc(Cl)cc3)c(C#N)c(Br)c2C(F)(F)F)NC1 [Example 10]	0	0	0	0	9 (100% kill)	9 (100% kill)	9 (100% kill)	9 (100% kill)	9 (100% kill)	9 (100% kill)	0				0	0	0	6 (66-75% kill)	
CSCn1c(Br)c(Br)c(C#N)c1-c1ccc(C(F)(F)F)cc1 [Example 44]		0	0	0	9 (100% kill)	9 (100% kill)	9 (100% kill)	9 (100% kill)	0	2 (26-35% kill)	3 (36-45% kill)								SOUTHERN CORN ROOTWORM ([4]; 10 (ppm as headed)): 0; OP-RESISTANT MITES Adult [5, 16]: 0; OP-RESISTANT MITES Egg ([5]; 10 ppm, rating after 5 days): 0; OP-RESISTANT MITES Egg ([5]; 100 ppm, rating after 5 days): 7 (76-85% kill); OP-RESISTANT MITES Nymph ([5]; 100 ppm, rating after 5 days): 0; OP-RESISTANT MITES Egg ([5]; 300 ppm, rating after 5 days): 0; LEAFHOPPER Systemic [6, 17]: 0
CN=C(NC)SCn1c(Br)c(Br)c(C#N)c1Br [Example 14]		0	0	0	9 (100% kill)	9 (100% kill)	9 (100% kill)	9 (100% kill)	0	5 (56-65% kill)	0				0	0	0	7 (76-85% kill)	
CCOC(=S)SCn1c(Cl)c(C#N)c(Cl)c1-c1ccc(Cl)c(Cl)c1 [Example 37]		0	9 (100% kill)	9 (100% kill)	9 (100% kill)	9 (100% kill)	9 (100% kill)	9 (100% kill)	9 (100% kill)	9 (100% kill)	0	0				0	0	0	OP-RESISTANT MITES Nymph [5, 15]: 4 (46-55% kill)
N#Cc1c(Br)c(Br)n(CSc2ccccc2)c1-c1ccc(C(F)(F)F)cc1 [Example 45, 4,5-dibromo-1-[(phenylthio)methyl]-2-(alpha, alpha,alpha-trifluoro-p-tolyl)pyrrole-3-carbonitrile]		0			0	0	8 (86-99% kill)	8 (86-99% kill)	0	0	0								
CN(C)C(=S)SCn1c(Cl)c(C#N)c(Cl)c1-c1ccc(Cl)c(Cl)c1 [Example 36]		0							9 (100% kill)	9 (100% kill)	0	0	0	0	7 (76-85% kill)	0	0	0	OP-RESISTANT MITES Nymph [5, 15]: 0; OP-RESISTANT MITES Adult [5, 9]: 0; OP-RESISTANT MITES Nymph ([5]; 100 ppm, mite nymphs, rating scale 0-9): 0
